Results on two molecules are retold here after patent publication US7105485B2, “HO-1 suppressor as a diagnostic and prognostic test for dementing diseases” (The Sir Mortimer B. Davis - Jewish General Hospital, priority 2000, dated 2006).

“Also recorded” adds a separate entry of the source.

The test system of assay [1] is HO-1 mRNA. The assay is described as follows: Induction of HO-1 mRNA in rat astroglia by cysteamine treatment (Northern blot). The assay is classed as cell-based. As to conditions: rat astroglia grown in standard culture media, CSH 880 μM x 6 hr. Here is the method: (§1) Brain cell cultures: Rat astroglia were prepared as described in Schipper et al. (1999), herein incorporated by reference, as follows:
(§2) Pregnant Sprague-Dawley rats were obtained from Charles River Breeding Farms. Primary neural cell cultures were prepared from 1-day old neonates by mechanoenzymatic dissociation of cerebral tissue […] as previously described by Chopra et al., (1997), herein incorporated by reference. Cells were grown in Ham's F-12 and high-glucose DMEM (50:50 vol/vol) supplemented with 10 mM HEPES. 5% heat-inactivated horse serum, 5% heat-inactivated fetal bovine serum, and penicillin/streptomycin (50 U/ml and 50 μg/ml, respectively). […] The cultures were then incubated under the above-mentioned conditions for 6 days, at which time >98% of the cells composing the monolayer were astroglia, as determined by immunohistochemical labeling for the astrocyte-specific marker glial fibrillary acidic protein, as described by Chopra et al. (1995), herein incorporated by reference. […]
(§3) RNA isolation and Northern analysis: Cultured astrocytes were harvested using a rubber policeman, and cytoplasmic RNA was isolated using an acid guanidinium thiocyanate/phenol/chloroform extraction method, as described by Chomczynski and Sacchi (1987), herein incorporated by reference. […] Resulting bands on the autoradiograph were analyzed using a phosphorimager S1 densitometer. […]

Assay [2] deals with HO-1 mRNA. The assay is described as follows: HOS bioassay: effect of 24 h pre-incubation with plasma or plasma fractions on the induced HO-1 mRNA response of rat astroglia (Northern blot). The assay is classed as cell-based. As to conditions: normal subjects taking antioxidants; vitamin E 400 U/day (N1); multiple very high-dose antioxidants (N2, N3). Here is the method:
as §1, §2, §3

Consider `NCCS` [Cysteamine], for which the “HO-1 mRNA bands after cysteamine (CSH) treatment” value in the assay with HO-1 mRNA [1] is listed as “induces strong HO-1 mRNA bands; also recorded: induces robust HO-1 mRNA bands”; in the assay on HO-1 mRNA [1] (listed as CSH), “intense HO-1 mRNA signal”.

Take vitamin E: in the assay on HO-1 mRNA [2], the “astrocyte HO-1 mRNA response to CSH with plasma of normal subjects on antioxidants” value is “does not affect”.
